{
  "source": "patent US8236820B2",
  "about": "“Anti-inflammatory compounds and uses thereof” (priority 2007, dated 2012)",
  "key": {"MCF-7": {"test_system": "MCF-7", "experiment": "Cell viability (MTT) assay, 24-h IC50, MCF-7", "format": "cell-based, human", "settings": "Homo sapiens, MCF7, 24 h, read-out: 24-h IC50"}, "SW480": {"test_system": "SW480", "experiment": "Cell viability (MTT) assay, 24-h IC50, SW480", "format": "cell-based, human", "settings": "Homo sapiens, SW480, 24 h, read-out: 24-h IC50"}, "MIA-PaCa-2": {"test_system": "MIA-PaCa-2", "experiment": "Cell viability (MTT) assay, 24-h IC50, MIA-PaCa-2", "format": "cell-based, human", "settings": "Homo sapiens, MIA PaCa-2, 24 h, read-out: 24-h IC50"}, "[1]": {"test_system": "MDA-MB 231 human breast cancer cells", "experiment": "Cell proliferation assay (BrdU incorporation) in MDA-MB231", "format": "cell-based", "settings": "MDA-MB231, each compound at its IC50 concentration", "excerpt": "Cell proliferation assay: To determine cell proliferation, we measured the incorporation of 5-bromo-2′-deoxyuridine (BrdU) into newly synthesized cellular DNA, following the manufacture's instructions (BD Biosciences, San Jose, Calif.).\nAs summarized in Table 2 below, in MDA-MB231 cells, all six compounds, each used at its IC50 concentration, a) inhibited cell proliferation between 6% and 50% compared to controls; b) induced both early and late apoptosis, as well as necrosis; and c) inhibited the G1 to S cell cycle phase transition. In this Table, the values for proliferation are the percentage of the corresponding control values. Those for apoptosis and necrosis refer to the percentage of cells in each category with respect to the entire cell population, and are to be compared to the control (vehicle only-treated) cells (uppermost row)."}, "HT-29": {"test_system": "HT-29", "experiment": "DFMO / phospho-sulindac I synergy, cell growth at 48 h, HT-29", "format": "cell-based, human", "settings": "HT-29, 48 h; DFMO 5 mM, phospho-sulindac I 40 μM", "method": "(§1) A—Left panel: Cell viability was determined in HT-29 (full bars) and SW-480 (empty bars) cells after 48 h of incubation with 5 mM DFMO, 40 μM phospho-sulindac (P-S) or simultaneous combination of DFMO and P-S. Data are expressed as percentage of control cells (cells incubated only with DMSO). […] Right panel: In this isobologram the additivity line connects the IC50 value of each compound used alone. A and B represent two different dose pairs of each compound (their respective concentrations are shown in parentheses). The location of both A and B below the additivity line signifies synergy. […] DNA content was determined from propidium iodide (PI) fluorescence. C—Apoptosis and necrosis were determined by combined staining with annexin V and PI and determining fluorescence intensity. The percentages of apoptotic cells were determined using the dual staining with annexin V and propidium iodide and are indicated in each quadrant: left bottom quadrant, viable cells (annexin V-negative/PI-negative); right bottom quadrant, early apoptotic cells (annexin V-positive/PI-negative); right upper quadrant, late apoptotic cells (annexin V-positive/PI-positive); left upper quadrant, necrotic cells (annexin V-negative, PI-positive). […]"}, "HT-29 cells": {"test_system": "HT-29 cells", "experiment": "Cell cycle analysis, DFMO and phospho-sulindac I, 48 h", "format": "cell-based, human", "settings": "DFMO 5 mM, phospho-sulindac I 40 μM", "method": "as §1"}, "colon cancer cells": {"test_system": "colon cancer cells", "experiment": "Apoptosis (annexin V/PI), DFMO and phospho-sulindac I, 48 h", "format": "cell-based, human", "settings": "48 h of incubation; concentrations below IC50s", "method": "as §1"}, "[2]": {"test_system": "spermidine/spermine N^1-acetyltransferase (SSAT)", "experiment": "SSAT enzymatic activity in SW480 cells", "format": "cell-based, human", "method": "SW480 cells were incubated without or with phospho-sulindac I (P-S) for up to 24 h and SSAT activity was determined at each time point by determining the amount of labelled N1-acetylspermidine synthesized from [^14C]acetyl-CoA and unlabeled spermidine.\nThe effect of phospho-sulindac I on polyamines is mediated, at least in part, by activation of SSAT by phospho-sulindac I. It is known that conventional sulindac induces SSAT activity (Babbar et al., Cyclooxygenase-independent induction of apoptosis by sulindac sulfone is mediated by polyamines in colon cancer. J Biol Chem 2003; 278(48):47762-75.). Incubation of HT-29 and SW480 cells with 85 μM phospho-sulindac I for 24 h leads to a 3- and 4.4-fold increase of SSAT activity (P<0.05 versus control), respectively. On the other hand, incubation with sulindac led to a 1.5 and 2.5-fold increase of SSAT activity (P<0.05 versus control) in HT-29 and SW480 cells, respectively."}, "Salmonella typhimurium": {"test_system": "Salmonella typhimurium", "experiment": "Ames mutagenicity assay (reverse mutations)", "format": "cell-based", "settings": "two strains, presence and absence of S9 activation", "method": "We assessed the safety of phospho-sulindac I by examining its genotoxicity by the Ames test and its gastrointestinal and other toxicity by performing a toxicological study in mice.\nThe mutagenic potential of phospho-sulindac I was evaluated by measuring its ability to induce reverse mutations at selected loci of two strains of Salmonella typhimurium in the presence and absence of S9 activation."}},
  "data": [
    {"smiles": "CCOP(=O)(OCC)OCCCCOC(=O)CC1=C(C)/C(=C/c2ccc([S+](C)[O-])cc2)c2ccc(F)cc21", "note": "(stereo not drawn) [Phospho-sulindac I]", "values": [
      {"measurement": "IC50", "setting": "MCF-7", "result": 62, "unit": "µM"},
      {"measurement": "IC50", "setting": "SW480", "result": 98, "unit": "µM"},
      {"measurement": "IC50", "setting": "MIA-PaCa-2", "result": 88, "unit": "µM"},
      {"measurement": "Proliferation (% control)", "setting": "[1]", "result": 52, "unit": "% control"},
      {"measurement": "reduction in cell number", "setting": "HT-29", "result": 41, "unit": "%"},
      {"measurement": "G1 population arrest", "setting": "HT-29 cells", "result": 75, "unit": "%"},
      {"measurement": "S phase", "setting": "HT-29 cells", "result": 13.6, "unit": "%"},
      {"measurement": "percentage of apoptotic cells", "setting": "colon cancer cells", "result": 16.5, "unit": "%"},
      {"measurement": "induction of SSAT compared to vehicle-treated controls", "setting": "[2]; SW480, 85 μM, 12 h of incubation", "result": 4, "unit": "fold"},
      {"measurement": "maximum increase of SSAT", "setting": "[2]; SW480, 85 μM, 18 h of incubation", "result": 5.5, "unit": "fold"},
      {"measurement": "increase of SSAT activity", "setting": "[2]; SW480, 24 h, phospho-sulindac I 85 μM, P<0.05 versus control", "result": 4.4, "unit": "fold"},
      {"measurement": "genotoxicity (mutagenic potential)", "setting": "Salmonella typhimurium", "result": "negative for genotoxicity"}
    ]}
  ]
}
